Values of other authors in patent EP0343306A1, “Liquid pharmaceutical preparation based on theophylline with a retarding effect, and process for producing it” (CARULLA VEKAR, S.A., priority 1988, dated 1989).

Details: in vivo

Cn1c(=O)c2[nH]cnc2n(C)c1=O [theophylline]
plasmatic levels associated with a significant incidence of side effects: above 20 mcg/ml
